Measurements taken from PubChem BioAssay AID1845215 (Molecular Pharmacology Branch, DTP, NCI, 2023).

Tested on: SW 1271 complex tumor spheroid viability
Experiment: Anticancer human tumor SW 1271 cell line growth inhibition;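 further: spheroids exposed to agents for seven days before readout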;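 on viability, T/C: percent of DMSO vehicle control luminescence so 100% = vehicle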
Details: for IC50: curve of first compound; for viability, T/C: stronger effect = lower value
Source text: Multicellular complex tumor spheroid response to DNA repair inhibitors in combination with DNA-damaging drugs
This study explores the anticancer activities of DNA-damaging drugs and inhibitors of DNA damage repair, both as single agents and in combinations. Complex tumor spheroids comprised of malignant cells, endothelial cells and mesenchymal stem cells served as an in vitro model for human solid tumors. This model system incorporates physiologically relevant features and patient-derived or established malignant cell lines with clinically relevant genetic alterations from many tumor types. Twenty-six patient-derived or established malignant cell lines were evaluated representing sarcoma, melanoma, small cell lung cancer (SCLC), non-small cell lung cancer (NSCLC), as well as bladder, ovarian and pancreatic cancers. The concentration ranges selected for each drug and investigational agent were based upon clinically achievable concentrations if the clinical Cmax of the agent was known.
Compounds. The drugs and compounds olaparib (NSC753686), talazoparib (NSC767125), berzosertib (NSC777718), elimusertib (NSC800525), nedisertib (NSC802822), VX-984 (NSC792969), AZD-1390 (NSC803789), temozolomide (NSC362856), topotecan (NSC609699), trabectedin (NSC813783), staurosporine (NSC755774), and gemcitabine (NSC613327) were obtained from the National Cancer Institute (NCI) Developmental Therapeutics Program Chemical Repository. The FDA-approved anticancer drug set is available from the Developmental Therapeutics Program at https://dtp.cancer.gov/organization/dscb/obtaining/available_plates.htm. […] The stock solutions were prepared in dimethyl sulfoxide (DMSO, Sigma-Aldrich, St. Louis, MO, cat. D2650) at 400-fold the tested concentration and stored at -70 degrees C. Prior to their use, the stock solutions were diluted in fresh medium and the final DMSO concentration in the assay was 0.25% (v/v). All drugs and investigational agents were tested over a range starting from a high concentration at or near the clinical Cmax and decreasing in half-log increments. If the clinical Cmax for an agent had not been determined, the highest concentration tested was 10 microM.
Cell Lines. The patient-derived cancer cell (PDC) lines: 156681-154-R-J1-PDC, 283228-195-R-J1-PDC, 287954-098-R-J1-PDC, 292921-168-R-J2-PDC, 349418-098-R-PDC, 425362-245-T-J1-PDC, 556581-035-R-J1-PDC, and BL0293-F563-PDC were received from the NCI Patient-Derived Models Repository (PDMR, https://pdmr.cancer.gov). The established cell lines HS-SY-2 (RRID:CVCL_8719), MPNST, and SYO-1 (RRID:CVCL_7146) were obtained from the Sloan Kettering Institute. The alveolar soft parts sarcoma cell line ASPS-1 (RRID:CVCL_S738) was established at the NCI and grown from internal seed stocks. The following established cell lines were purchased from the American Type Culture Collection (ATCC, Manassas, VA): G-401 (ATCC, cat. CRL-1441, RRID:CVCL_0270), SW982 (ATCC, cat. HTB-93, RRID:CVCL_1734), VA-ES-BJ (ATCC, cat. CRL-2138, RRID:CVCL_1785), NCI-H719 (ATCC, cat. CRL-5837, RRID:CVCL_1582), NCI-H196 (ATCC, cat. CRL-5823, RRID:CVCL_1509), NCI-H841 (ATCC, cat. CRL-5845, RRID:CVCL_1595), NCI-H1618 (ATCC, cat. CRL-5879, RRID:CVCL_1480), NCI-H1876 (ATCC, cat. CRL-5902, RRID:CVCL_1503), DMS 114 (ATCC, cat. CRL-2066; RRID:CVCL_1174), NCI-H211 (ATCC, cat. CRL-5824; RRID:CVCL_1529), and SW 1271 (ATCC, cat. CRL-2177, RRID:CVCL_1716). The small cell lung cancer cell line COR-L88 was purchased from Sigma-Aldrich (cat. 92031917-1VL, RRID:CVCL_1141). The non-small cell lung cancer cell lines NCI-H226 (RRID:CVCL_1544) and NCI-H322M (RRID:CVCL_1557) were established at the NCI and grown from internal seed stocks. Pooled donor human umbilical vein endothelial cells (HUVEC, Lonza, cat. CC-2519) and human mesenchymal stem cells (hMSC, Lonza, cat. PT-2501) were purchased from Lonza (Walkersville, MD).
Cell Culture. All cells were maintained in an incubator at 37 degrees C and 5% CO2 with 95% humidity. […]

SMILES: Cc1cc(C)c(CNC(=O)c2cc(-c3ccc(CN4CCOCC4)cc3)cc3c2cnn3C2CCCC2)c(=O)[nH]1 + CC[C@@]1(O)C(=O)OCc2c1cc1n(c2=O)Cc2cc3c(CN(C)C)c(O)ccc3nc2-1
- IC50 (second compound 0.003 µM): 2.12 µM
- IC50 (second compound 0.00949 µM): 0.0329 µM
- IC50 (second compound 0.03 µM): < 0.0316 µM
- IC50 (second compound 0.0949 µM): < 0.0316 µM
- IC50 (second compound 0.3 µM): < 0.0316 µM
- viability, T/C (second compound 0.003 µM, first compound 0.0316 µM): 83.2%
- viability, T/C (second compound 0.003 µM, first compound 0.1 µM): 84.7%
- viability, T/C (second compound 0.003 µM, first compound 0.316 µM): 70.6%
- viability, T/C (second compound 0.003 µM, first compound 1 µM): 59.8%
- viability, T/C (second compound 0.003 µM, first compound 3.16 µM): 45.5%
- viability, T/C (second compound 0.003 µM, first compound 10 µM): 34.9%
- viability, T/C (second compound 0.00949 µM, first compound 0.0316 µM): 51.3%
- viability, T/C (second compound 0.00949 µM, first compound 0.1 µM): 38.2%
- viability, T/C (second compound 0.00949 µM, first compound 0.316 µM): 32.5%
- viability, T/C (second compound 0.00949 µM, first compound 1 µM): 26.9%
- viability, T/C (second compound 0.00949 µM, first compound 3.16 µM): 20.4%
- viability, T/C (second compound 0.00949 µM, first compound 10 µM): 16.3%
- viability, T/C (second compound 0.03 µM, first compound 0.0316 µM): 28.2%
- viability, T/C (second compound 0.03 µM, first compound 0.1 µM): 26.4%
- viability, T/C (second compound 0.03 µM, first compound 0.316 µM): 24.4%
- viability, T/C (second compound 0.03 µM, first compound 1 µM): 27%
- viability, T/C (second compound 0.03 µM, first compound 3.16 µM): 24.9%
- viability, T/C (second compound 0.03 µM, first compound 10 µM): 22.4%
- viability, T/C (second compound 0.0949 µM, first compound 0.0316 µM): 30.7%
- viability, T/C (second compound 0.0949 µM, first compound 0.1 µM): 27%
- viability, T/C (second compound 0.0949 µM, first compound 0.316 µM): 27.7%
- viability, T/C (second compound 0.0949 µM, first compound 1 µM): 25.6%
- viability, T/C (second compound 0.0949 µM, first compound 3.16 µM): 23.5%
- viability, T/C (second compound 0.0949 µM, first compound 10 µM): 22.6%
- viability, T/C (second compound 0.3 µM, first compound 0.0316 µM): 15.7%
- viability, T/C (second compound 0.3 µM, first compound 0.1 µM): 12.8%
- viability, T/C (second compound 0.3 µM, first compound 0.316 µM): 11%
- viability, T/C (second compound 0.3 µM, first compound 1 µM): 9.77%
- viability, T/C (second compound 0.3 µM, first compound 3.16 µM): 6.12%
- viability, T/C (second compound 0.3 µM, first compound 10 µM): 4.56%

SMILES: Cc1sc2c(c1C)C(c1ccc(Cl)cc1)=NC(CC(=O)Nc1ccc(O)cc1)c1nnc(C)n1-2 (stereo not given) + CC[C@@]1(O)C(=O)OCc2c1cc1n(c2=O)Cc2cc3c(CN(C)C)c(O)ccc3nc2-1
- IC50 (second compound 0.003 µM): 0.0512 µM
- IC50 (second compound 0.00949 µM): 0.0108 µM
- IC50 (second compound 0.03 µM): < 0.00949 µM
- IC50 (second compound 0.0949 µM): < 0.00949 µM
- IC50 (second compound 0.3 µM): < 0.00949 µM
- viability, T/C (second compound 0.003 µM, first compound 0.00949 µM): 81.4%
- viability, T/C (second compound 0.003 µM, first compound 0.03 µM): 71.3%
- viability, T/C (second compound 0.003 µM, first compound 0.0949 µM): 25.5%
- viability, T/C (second compound 0.003 µM, first compound 0.3 µM): 3.11%
- viability, T/C (second compound 0.003 µM, first compound 0.949 µM): 1.06%
- viability, T/C (second compound 0.003 µM, first compound 3 µM): 1.11%
- viability, T/C (second compound 0.00949 µM, first compound 0.00949 µM): 52.3%
- viability, T/C (second compound 0.00949 µM, first compound 0.03 µM): 32.1%
- viability, T/C (second compound 0.00949 µM, first compound 0.0949 µM): 12.8%
- viability, T/C (second compound 0.00949 µM, first compound 0.3 µM): 2.4%
- viability, T/C (second compound 0.00949 µM, first compound 0.949 µM): 1.61%
- viability, T/C (second compound 0.00949 µM, first compound 3 µM): 1.61%
- viability, T/C (second compound 0.03 µM, first compound 0.00949 µM): 25.2%
- viability, T/C (second compound 0.03 µM, first compound 0.03 µM): 24.4%
- viability, T/C (second compound 0.03 µM, first compound 0.0949 µM): 14.6%
- viability, T/C (second compound 0.03 µM, first compound 0.3 µM): 2.67%
- viability, T/C (second compound 0.03 µM, first compound 0.949 µM): 1.56%
- viability, T/C (second compound 0.03 µM, first compound 3 µM): 1.13%
- viability, T/C (second compound 0.0949 µM, first compound 0.00949 µM): 29%
- viability, T/C (second compound 0.0949 µM, first compound 0.03 µM): 24.5%
- viability, T/C (second compound 0.0949 µM, first compound 0.0949 µM): 13.2%
- viability, T/C (second compound 0.0949 µM, first compound 0.3 µM): 3.31%
- viability, T/C (second compound 0.0949 µM, first compound 0.949 µM): 1.34%
- viability, T/C (second compound 0.0949 µM, first compound 3 µM): 2.04%
- viability, T/C (second compound 0.3 µM, first compound 0.00949 µM): 16.9%
- viability, T/C (second compound 0.3 µM, first compound 0.03 µM): 16.3%
- viability, T/C (second compound 0.3 µM, first compound 0.0949 µM): 7.74%
- viability, T/C (second compound 0.3 µM, first compound 0.3 µM): 1.97%
- viability, T/C (second compound 0.3 µM, first compound 0.949 µM): 0.91%
- viability, T/C (second compound 0.3 µM, first compound 3 µM): 0.97%
